Data published in ChEMBL document CHEMBL1150454, “Synthesis, bioactivity, and DNA-cleaving ability of desferrioxamine B-nalidixic acid and anthraquinone carboxylic acid conjugates” (Bioorg Med Chem Lett, 1995).
≈ marks a conversion by molar mass, not a printed value.

Key:
Format in all cases: functional, organism-based
Plasmodium falciparum [1] = experiment: In vitro antimalarial activity against Plasmodium falciparum W2
Plasmodium falciparum [2] = experiment: In vitro antimalarial activity against Plasmodium falciparum D6
Plasmodium falciparum [3] = experiment: In vitro antimalarial activity against Plasmodium falciparum D6; Not significant
Plasmodium falciparum [4] = experiment: In vitro antimalarial activity against Plasmodium falciparum W2; Not significant

Row | IC50 (Plasmodium falciparum [1]) [µg/mL] | IC50 (Plasmodium falciparum [2]) [µg/mL] | IC50 (Plasmodium falciparum [3]) | IC50 (Plasmodium falciparum [4]) | SMILES
1 | ~0.6 (≈ 0.774 µM) | ~0.6 (≈ 0.774 µM) |  |  | CCn1cc(C(=O)NCCCCCN(O)C(=O)CCC(=O)NCCCCCN(O)C(=O)CCC(=O)NCCCCCN(O)C(C)=O)c(=O)c2ccc(C)nc21
2 |  |  | Not Active | Not Active | CC(=O)N(O)CCCCCNC(=O)CCC(=O)N(O)CCCCCNC(=O)CCC(=O)N(O)CCCCCNC(=O)c1ccc2c(c1)C(=O)c1ccccc1C2=O
